{
  "source": "patent US4439619A",
  "about": "“Fluorinated pentene diamine derivatives” (Merrell Toraude et Compagnie, priority 1980, dated 1984)",
  "key": {"[1]": {"test_system": "Ornithine decarboxylase (ODC)", "test": "ODC inhibitory activity in vivo (ODC activity in ventral prostate and thymus of rats)", "parameters": "species or system rats (Sprague-Dawley)", "method": "Male rats of the Sprague-Dawley strain (200-220 g body weight), purchased from Charles River, are given food and water ad libitum under a constant 12 hr light--12 hr dark lighting schedule. Drugs are injected intraperitoneally (dissolved in 0.9% saline) or are given by gavage (dissolved in water). Rats given saline or water serve as control. Five to six hours after drug administration, the animals are killed by decapitation and the ventral prostrate and thymus are excised rapidly and immediately processed. The tissues are homogenized with three volumes of 30 mM sodium phosphate buffer (pH 7.1) containing 0.1 mM EDTA, 0.25 M sucrose, 0.1 mM pyridoxal phosphate and 5 mM dithiothreitol. Ornithine decarboxylase activities are determined on a 1000 g supernatant of prostate homogenate and on a whole thymus homogenate, essentially as described by Ono et al. (Biochem. Biophys. Acta, 284, 285 (1972)).\nWhen tested according to the above-described procedure, representative compounds of Formula I gave the results shown in Table II below and in which the following abbreviations are used: […]"}, "[2]": {"biological_target": "T1, Ornithine decarboxylase (ODC) (Rattus norvegicus, UniProt P09057)", "T1 construct": "prepared from the livers of rats which have been injected with thioacetamide; from tissue; host or cells: rat liver (thioacetamide-injected rats), purified about ten fold by acid treatment at pH 4.6", "T1 sequence (P09057 1-461)": "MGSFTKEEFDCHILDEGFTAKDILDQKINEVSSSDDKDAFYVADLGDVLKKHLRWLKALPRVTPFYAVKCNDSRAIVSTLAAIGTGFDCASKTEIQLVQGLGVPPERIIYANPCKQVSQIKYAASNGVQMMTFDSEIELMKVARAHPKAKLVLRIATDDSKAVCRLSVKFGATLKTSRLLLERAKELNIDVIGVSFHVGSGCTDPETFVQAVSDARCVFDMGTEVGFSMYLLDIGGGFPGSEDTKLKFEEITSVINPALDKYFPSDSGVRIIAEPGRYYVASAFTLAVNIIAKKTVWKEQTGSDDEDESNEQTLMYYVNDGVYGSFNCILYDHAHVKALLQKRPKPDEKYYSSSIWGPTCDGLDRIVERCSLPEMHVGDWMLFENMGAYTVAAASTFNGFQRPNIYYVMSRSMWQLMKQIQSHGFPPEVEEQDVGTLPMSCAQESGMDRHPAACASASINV", "test": "Inhibition of ornithine decarboxylase (ODC) in vitro (partially purified ODC from rat liver, 14CO2 assay, Kitz and Wilson)", "type": "biochemical, rats", "parameters": "Half-life (t1/2): dose or concentration left out as unconfirmed", "conditions": "for τ50 (half-life, at infinite concentration of inhibitor) / Ki: 37°, Kitz and Wilson; for Ki: time-dependent inhibition, read-out: KI (apparent dissociation constant)", "method": "Ornithine decarboxylase (ODC) is prepared from the livers of rats which have been injected with thioacetamide (150 mg/kg of body weight) 18 hrs before sacrifice, and is purified about ten fold by acid treatment at pH 4.6 as described by Ono et al. (Biochem. Biophys. Acta 284, 285 (1972)). The stock solution of ODC is comprised of protein (16 mg/mL), sodium phosphate buffer (30 mM, pH 7.1), dithiothreitol (5 mM) and pyridoxal phosphate (0.1 mM). The specific activity of this stock solution is 0.12 nmol of CO2 /min per mg of protein. For a typical experiment 320 μl of this stock solution are mixed at time 0 with 80 μl of a solution of the inhibitor in water and incubated at 37°. At different times 50 μl aliquots are transferred into a 1-mL assay medium containing sodium phosphate (30 mM, pH 7.1), dithiothreitol (5 mM), pyridoxal phosphate (0.1 mM), L-ornithine ([…]), and DL-[1-^14 C] ornithine ([…], 58 Ci/mol, Amersham) in a closed vessel in which a filter paper moistered with 50 μl hyamine hydroxide (1 M) is fitted. The reaction is allowed to proceed for 60 min at 37° C. and then terminated by addition of 0.5 ml of 40% trichloroacetic acid. After an additional 30 min the CO2 absorbed on the filter paper is counted in a standard scintillation cocktail. KI (apparent dissociation constant) and .tau.50 (half-life, at infinite concentration of inhibitor are calculated according to the method of Kitz and Wilson (J. Biol. Chem., 237, 3245 (1962)).\nWhen tested according to the above-described procedure, representative compounds of Formula I gave the results shown in Table III below. The same abbreviations are used as in Table II and DFMDP is α-difluoromethyl-trans-β-dehydroputrescine."}, "[3]": {"test": "Contragestational activity in mice (method of J. Fozard)", "type": "in vivo", "conditions": "80 mg/kg S.C. every six hours on the 8th day of gestation", "method": "The compounds of Formula I wherein Rc is --COR3 are also capable of interrupting embryogenesis in female mammals when administered systematically. Thus, the compounds are useful as contragestational agents in female mammals when it is desired to terminate early pregnancy. […] In general, an effective daily dose of the compounds of Formula I, wherein Rc is --COR3, for terminating pregnancy in warm-blooded mammals is from 10 mg/kg to 1 g/kg, preferably 10 to 100 mg/kg, administered after fertilisation during the period between Standard Stages 8-16 of gestation as defined by E. Wischi (See Tables 26-27, pages 82-92, Biology Data Book, Altman and Dittmer, Editors, Published by the Federation of American Societies for Experimental Biology, Washington, D.C., 1964). The period of treatment will vary with the species. In humans, the period of treatment will extend from the 6th-7th day of gestation of the 27th day."}, "L 1210 leukemia": {"test_system": "L 1210 leukemia", "type": "in vivo, mice", "method": "(§1) When tested in mice against L 1210 leukemia and EMT6 solid tumors, -fluoromethyl-trans-dehydroputrescine (MFMDP) gave the following results:\nWhen injected i.p. (twice a day from day 1) at a dose of 50 mg/kg it increased by 20% the mean survival time of the mice."}, "EMT6 solid tumors": {"test_system": "EMT6 solid tumors", "test": "Anti-neoplastic effect in mice inoculated with EMT6 solid sarcoma", "type": "in vivo", "from_the_text": "as §1\n2% MFMDP in water as sole drinking fluid starting 4 days after inoculation of the cells, inhibited by 60% to 70% the growth of the tumor at day 17. When given at 0.2% in water, it inhibited by 25% tumor growth."}, "ODC": {"test_system": "ODC", "test": "ODC activity in the EMT6 tumor of treated mice", "type": "in vivo", "conditions": "all treatments (2% and 0.2% in water, 200 mg/kg i.p.)"}, "in vivo": {"test": "in vivo", "type": "in vivo, mice", "conditions": "2% in drinking water or 200 mg/kg i.p. twice a day, after 10 days", "method": "When given in drinking water (2%) or injected i.p. (200 mg/kg twice a day) MFMDP induced the following toxic effects observed after 10 days of treatment: […]"}, "[4]": {"test": "Acute i.p. toxicity (LD50) in mice", "conditions": "mouse, in vivo, ip, acute i.p. injection", "from_the_text": "The LD50 is acute i.p. injection was between 1 and 3 g/kg in mice."}, "[5]": {"test_system": "carcinoma of the bladder, esophagus, lung, pancreas, colon, kidney, breast and prostate, oat cell carcinoma, adenocarcinoma, lymphoma, hepatoma, melanoma …", "conditions": "intravenously once or twice a week; 65 treated patients; cited from earlier work"}},
  "data": [
    {"smiles": "NC/C=C/C(N)(CF)C(=O)O", "note": "(centres unmarked) [MFMDO, 2-Fluoromethyl-2,5-diamino-3-(E)-penten-1-oic acid]", "values": [
      {"measurement": "ODC activity, ventral prostate", "setting": "[1]; 50 mg/kg I.P.", "result": 18, "unit": "% CONTROL"},
      {"measurement": "ODC activity, ventral prostate", "setting": "[1]; 50 mg/kg gavage", "result": 36, "unit": "% CONTROL"},
      {"measurement": "Half-life (t1/2)", "setting": "[2]", "result": 3.1, "unit": "min"},
      {"measurement": "τ50 (half-life, at infinite concentration of inhibitor)", "setting": "[2]", "result": 2.7, "unit": "min"},
      {"measurement": "Ki", "setting": "[2]", "result": 2.8, "unit": "µM"},
      {"measurement": "inhibition of gestation (number of viable feti per gravid female vs controls)", "setting": "[3]", "result": "inhibited gestation"}
    ]},
    {"smiles": "NC/C=C/C(N)C(F)F", "note": "(centres unmarked) [DFMDP, 2,2-Difluoro-2,5-diamino-3-(E)-pentene]", "values": [
      {"measurement": "Half-life (t1/2)", "setting": "[2]", "result": 5, "unit": "min"},
      {"measurement": "τ50 (half-life, at infinite concentration of inhibitor)", "setting": "[2]", "result": 0.7, "unit": "min"},
      {"measurement": "Ki", "setting": "[2]", "result": 60, "unit": "µM"}
    ]},
    {"smiles": "NC/C=C/C(N)(C(=O)O)C(F)F", "note": "(centres unmarked) [DFMDO, 2-Difluoromethyl-2,5-diamino-3-(E)-penten-1-oic acid]", "values": [
      {"measurement": "ODC activity, ventral prostate", "setting": "[1]; 50 mg/kg gavage", "result": 119, "unit": "% CONTROL"},
      {"measurement": "Half-life (t1/2)", "setting": "[2]", "result": 10.0, "unit": "min"},
      {"measurement": "τ50 (half-life, at infinite concentration of inhibitor)", "setting": "[2]", "result": 2.5, "unit": "min"},
      {"measurement": "Ki", "setting": "[2]", "result": 30, "unit": "µM"}
    ]},
    {"smiles": "NC/C=C/C(N)CF", "note": "(centres unmarked) [MFMDP, 1-Fluoro-2,5-diamino-3-(E)-pentene]", "values": [
      {"measurement": "ODC activity, thymus", "setting": "[1]; 25 mg/kg I.P.", "result": 24, "unit": "% CONTROL"},
      {"measurement": "ODC activity, ventral prostate", "setting": "[1]; 25 mg/kg gavage", "result": 12, "unit": "% CONTROL"},
      {"measurement": "Half-life (t1/2)", "setting": "[2]", "result": 0.9, "unit": "min"},
      {"measurement": "τ50 (half-life, at infinite concentration of inhibitor)", "setting": "[2]", "result": 0.2, "unit": "min"},
      {"measurement": "Ki", "setting": "[2]", "result": 42, "unit": "µM"},
      {"measurement": "increase of mean survival time", "setting": "L 1210 leukemia; 50 mg/kg i.p. twice a day from day 1", "result": 20, "unit": "%"},
      {"measurement": "prolongation of survival", "setting": "L 1210 leukemia; 0.2% in water as sole drinking fluid from day 1 after inoculation", "result": "did not prolong the survival of the mice"},
      {"measurement": "increased survival", "setting": "L 1210 leukemia; 200 mg/kg i.p.", "result": "no increased survival could be observed"},
      {"measurement": "toxicity", "setting": "L 1210 leukemia; 200 mg/kg i.p., L 1210 mice", "result": "toxic"},
      {"measurement": "inhibition of tumor growth", "setting": "EMT6 solid tumors; 0.2% in water", "result": 25, "unit": "%"},
      {"measurement": "inhibition of tumor growth", "setting": "EMT6 solid tumors; 200 mg/kg i.p. twice a day starting 4 days after inoculation, day 13", "result": 50, "unit": "%"},
      {"measurement": "ODC activity in the tumor", "setting": "ODC", "result": "markedly inhibited in all cases"},
      {"measurement": "decrease in body weight", "setting": "in vivo", "result": 25, "unit": "%"},
      {"measurement": "decrease in water intake", "setting": "in vivo", "result": "30-40%"},
      {"measurement": "drop in blood leukocytes", "setting": "in vivo", "result": 50, "unit": "%"},
      {"measurement": "mortality at 240 h", "setting": "in vivo; mouse, in vivo, read-out: animals dead", "result": 15, "unit": "%"},
      {"measurement": "LD50", "setting": "[4]", "result": "1000 to 3000", "unit": "mg/kg"}
    ]},
    {"smiles": "CC(C=NNC(=N)N)=NNC(=N)N", "note": "[MGBG, methylglyoxal bis(guanylhydrazone)]", "values": [
      {"measurement": "complete disappearance of the disease", "setting": "[5]", "result": "complete disappearance of the disease in two of the 65 treated patients"},
      {"measurement": "regression of the tumor", "setting": "[5]", "result": "measurable regression of the tumor in many of the patients treated"}
    ]}
  ]
}
